Consider ten compounds from a polymer gas permeability compilation.

Turning to `*Oc1ccc(C(C)(C)c2ccc(OC(=O)c3ccc(C(*)=O)cc3)cc2)cc1` (repeat unit), the CH4 permeability came out at 0.678 Barrer, the CO2 permeability worked out at 11.6 Barrer, the N2 permeability was found to be 0.625 Barrer and the O2 permeability came to 2.5 Barrer.
Consider `*c1c(C)cc(-c2cc(C)c(N3C(=O)c4ccc(Oc5cc(C(C)(C)C)c(Oc6ccc7c(c6)C(=O)N(*)C7=O)cc5C(C)(C)C)cc4C3=O)c(C)c2)cc1C` (repeat unit), for which the CH4 permeability worked out at 5.6 Barrer, the CO2 permeability is 95 Barrer, the H2 permeability amounted to 150 Barrer and the N2 permeability stood at 4.9 Barrer. The O2 permeability stood at 22 Barrer.
In turn, `*Oc1ccc(S(=O)(=O)c2ccc(Oc3ccc(C4(c5ccc(*)cc5)c5ccccc5-c5ccccc54)cc3)cc2)cc1` (repeat unit) showed a CH4 permeability of 0.531 Barrer, a CO2 permeability of 13.8 Barrer, an N2 permeability of 0.484 Barrer and an O2 permeability of 2.76 Barrer.
Regarding `*CC(*)[Si](C)(C)C` (repeat unit), the CH4 permeability came to 18 Barrer, the CO2 permeability was determined as 190 Barrer, the H2 permeability was determined as 200 Barrer and the N2 permeability was 11 Barrer. The O2 permeability came out at 44 Barrer.
For `*OC(=O)Oc1ccc(C2(c3ccc(*)cc3)CCCCC2)cc1` (repeat unit) the same measures were 0.092 Barrer, 2.2 Barrer, 9.1 Barrer, 0.105 Barrer and 0.6 Barrer.
For `*C=C(*)c1cccc(O[Si](C)(C)C(C)(C)C)c1` (repeat unit) the same measures were 12 Barrer, 58 Barrer, 64 Barrer, 7.6 Barrer and 17 Barrer.
For `*C(=C(*)c1cccc([Si](C)(C)C)c1)c1ccccc1` (repeat unit) the same measures were 1500 Barrer, 4700 Barrer, 2100 Barrer, 610 Barrer and 1200 Barrer.
Compound `*c1ccc(-c2ccc(C(*)(C(F)(F)F)C(F)(F)F)cc2)cc1` (repeat unit) displayed a CH4 permeability of 34 Barrer, a CO2 permeability of 470 Barrer, an H2 permeability of 470 Barrer and an N2 permeability of 41 Barrer. Also, the O2 permeability was determined as 120 Barrer.
The compound `*c1c(C)c(C)c(N2C(=O)c3cc4c(cc3C2=O)C2(CC(C)(C)c3cc5c(cc32)C(=O)N(*)C5=O)CC4(C)C)c(C)c1C` (repeat unit) gave a CH4 permeability of 390 Barrer, a CO2 permeability of 3940 Barrer, an H2 permeability of 1920 Barrer and an N2 permeability of 257 Barrer. The O2 permeability was found to be 722 Barrer.
On to `*c1cccc(S(=O)(=O)c2cccc(N3C(=O)c4ccc(C(c5ccc6c(c5)C(=O)N(*)C6=O)(C(F)(F)F)C(F)(F)F)cc4C3=O)c2)c1` (repeat unit), for which the CH4 permeability worked out at 0.0578 Barrer, the CO2 permeability came to 2.34 Barrer, the N2 permeability came to 0.095 Barrer and the O2 permeability came to 0.73 Barrer.
